Test system: MT4
Test: Ability to block replication of HIV-1 virus in MT-4 cells
Conditions: Homo sapiens

| SMILES | IC50 |
| --- | --- |
| C=C(C)CN1Cc2cccc3c2C(CC1C)C(S)=N3 (stereo unspecified) | > 10 µM |
| CC(C)=CCN1Cc2cc(Cl)cc3nc(NC#N)n(c23)CC1C (stereo unspecified) | > 250 µM |
| CC1CN2c3c(cc(Cl)cc3NS2(=O)=O)CN1CC1CC1 (stereo unspecified) | > 10 µM |
| CC(C)=CCN1Cc2cccc3[nH]c(=S)n(c23)C[C@@H]1C | 0.097 µM |
| CCCN1Cc2cccc3[nH]c(=O)n(c23)CC1C (stereo unspecified) | 60 µM |
| CNc1nc2cccc3c2n1CC(C)N(CC=C(C)C)C3 (stereo unspecified) | > 250 µM |
| CC(C)=CCN1Cc2cc(Cl)cc3nc(S)n(c23)C[C@H]1C | 0.39 µM |
| CC1Cn2c(O)nc3cccc(c32)CN1CC1CC1 (stereo unspecified) | 10 µM |
| CCCN1Cc2cccc3[nH]c(=O)c(=O)n(c23)CC1C (stereo unspecified) | > 250 µM |
| C=CCN1Cc2cccc3c2C(CC1C)C(S)=N3 (stereo unspecified) | > 250 µM |
| CC1Cn2c(S)nc3cc(Cl)cc(c32)CN1CC1CCC1 (stereo unspecified) | 0.026 µM |
| CCCN1Cc2cccc3[nH]c(Cl)c(c23)CC1C (stereo unspecified) | > 50 µM |
| C=C(C)CN1Cc2cccc3ncn(c23)CC1C (stereo unspecified) | > 2 µM |
| CCCN1Cc2cccc3[nH]c(=S)n(c23)CC1C (stereo unspecified) | 1.7 µM |
| O=c1[nH]cnc2c1ncn2[C@H]1CC[C@@H](CO)O1 [DIDANOSINE] | 5.5 µM |
| CC1Cn2c(S)nc3cc(Cl)cc(c32)CN1CCC1CC1 (stereo unspecified) | 0.42 µM |
| CC(C)=CCN1Cc2cc(Cl)cc3[nH]c(=O)n(c23)C[C@H]1C | 4.2 µM |
| C=CCn1c(=O)n2c3c(cccc31)CN(CCC)C(C)C2 (stereo unspecified) | > 50 µM |
| C=C(C)CN1Cc2cccc3c2C(O)(CC1C)C(=O)N3 (stereo unspecified) | > 250 µM |
| CC(C)=CCN1Cc2cc(Cl)cc3[nH]c(=O)n(c23)C[C@@H]1C | 0.18 µM |
| CCCN1Cc2cccc3c2n(c(=O)n3C(C)C)CC1C (stereo unspecified) | > 250 µM |
| CC(C)=CCN1Cc2cc(Cl)cc3[nH]c(=S)n(c23)C[C@@H]1C | 0.039 µM |
| CC(C)=CCN1Cc2cccc3nc(Sc4ccccc4)n(c23)CC1C (stereo unspecified) | > 50 µM |

| SMILES | IC50 |
| --- | --- |
| C/N=C(/S)N1CC(C)N(CC2CC2)Cc2cc(Cl)ccc21 (stereo unspecified) | > 10 µM |
| Cc1cn([C@H]2C[C@H](N=[N+]=[N-])[C@@H](CO)O2)c(=O)[nH]c1=O [ZIDOVUDINE] | 0.004 µM |
| CCCN1Cc2cccc3[nH]cc(c23)CC1C (stereo unspecified) | > 250 µM |
| CC(C)=CCN1Cc2cccc3nc(N(C)C)n(c23)CC1C (stereo unspecified) | > 250 µM |
| CCC(=CCN1Cc2cc(Cl)cc3nc(O)n(c23)CC1C)CC (stereo unspecified) | 0.029 µM |
| COc1nc2cccc3c2n1CC(C)N(CC=C(C)C)C3 (stereo unspecified) | > 250 µM |
| CCCN1Cc2cccc3c2n(c(=O)n3C)CC1C (stereo unspecified) | > 250 µM |
| C=C(C)CN1Cc2cccc3c2C(CC1C)C(=O)N3 (stereo unspecified) | > 50 µM |
| CCCN1Cc2cccc3c2N(CC1C)C(=O)C3 (stereo unspecified) | > 250 µM |
| CCCN1Cc2cccc3c2n(c(=O)n3CC#N)CC1C (stereo unspecified) | > 250 µM |
| C=C(C)CN1Cc2cccc3[nH]c(=O)n(c23)CC1C (stereo unspecified) | 15.2 µM |
| CC1Cn2c(=O)oc3cccc(c32)CN1CC1CCC1 (stereo unspecified) | > 2 µM |
| CC1Cn2c(O)nc3cc(Cl)cc(c32)CN1CCC1CC1 (stereo unspecified) | 2.2 µM |
| CC(C)=CCN1Cc2cc(Cl)cc3nc([SeH])n(c23)CC1C (stereo unspecified) | 0.018 µM |
| COC(=O)Nc1nc2cc(Cl)cc3c2n1C[C@@H](C)N(CC=C(C)C)C3 | > 10 µM |
| CC1Cn2c(S)nc3cccc(c32)CN1CC1CC1 (stereo unspecified) | 0.06 µM |
| CC(C)=CCN1Cc2cccc3nc(O)n(c23)CC1C (stereo unspecified) | 9.8 µM |
| CC1CN2C(=O)CNc3cc(Cl)cc(c32)CN1CC1CC1 (stereo unspecified) | > 10 µM |
| CCC(=CCN1Cc2cc(Cl)cc3nc(S)n(c23)CC1C)CC (stereo unspecified) | 0.012 µM |
| CC1Cn2c(O)nc3cc(Cl)cc(c32)CN1CC1CCC1 (stereo unspecified) | 0.38 µM |
| C=C(C)CN1Cc2cccc3nc(S)n(c23)CC1C (stereo unspecified) | 0.026 µM |
| CC1Cn2c(N=C(N)N)nc3cc(Cl)cc(c32)CN1CC1CC1 (stereo unspecified) | > 50 µM |
| CCCN1Cc2cccc3nnn(c23)CC1C (stereo unspecified) | > 10 µM |

From ChEMBL document CHEMBL1125787, “Synthesis and anti-HIV-1 activity of 4,5,6,7-tetrahydro-5-methylimidazo[4,5,1-jk][1,4]benzodiazepin-2(1H)-on e (TIBO) derivatives. 2” (J Med Chem, 1991)
